# Values of other authors as cited in patent US20120245518A1, “PHARMACEUTICAL COMPOSITION FOR THE TREATMENT OF BLADDER DISORDERS” (Ritcher Gedeon NYRT., priority 2009, published 2012).
# Tested on: matrix metalloproteinases, particularly the MMP-9
substance,measurement,value
sodium hyaluronate,"inhibitory effect on matrix metalloproteinases, particularly MMP-9",does not show the latter effect
